# Several values for one entry are separate records, joined by “and”; a condition that tells them apart may be missing. Equal entries are not always repeated. ± gives the uncertainty stated by the source.
structure (smiles),measurement,setting,value
NCCNCCNCCN,viscosity,"303.15 K, 101 kPa",25.41 ± 2.5 mPa·s
same,viscosity,"313.15 K, 101 kPa",15.31 ± 1.5 mPa·s
same,viscosity,"323.15 K, 101 kPa",9.867 ± 0.99 mPa·s
CN(C)CCN(C)C,viscosity,"293.15 K, 100 kPa",0.615 ± 0.06 mPa·s
same,viscosity,"303.15 K, 100 kPa",0.557 ± 0.06 mPa·s
same,viscosity,"313.15 K, 100 kPa",0.493 ± 0.06 mPa·s
same,viscosity,"323.15 K, 100 kPa",0.439 ± 0.06 mPa·s
CCOC(=O)C(Br)CC (stereo unspecified),viscosity,"303.15 K, 101 kPa",1.529 ± 0.0092 mPa·s
O=C(Cl)c1ccccc1,viscosity,"303.15 K, 101 kPa",1.244 ± 0.015 mPa·s
CCCCCCC(C)O (stereo unspecified),viscosity,"298.15 K, 101 kPa",6.49 ± 0.07 mPa·s
same,viscosity,"298.15 K, 101.3 kPa",5.929 ± 0.13 mPa·s and 5.956 ± 0.069 mPa·s
same,viscosity,"303.15 K, 101.3 kPa",4.794 ± 0.11 mPa·s and 4.803 ± 0.058 mPa·s
same,viscosity,"303.15 K, 101.33 kPa",4.804 ± 0.054 mPa·s
same,viscosity,"308.15 K, 101.3 kPa",3.909 ± 0.095 mPa·s and 3.907 ± 0.047 mPa·s
[2H]OCCCCC,viscosity,"306.3 K, 101.33 kPa",2.685 ± 0.16 mPa·s
COS(=O)(=O)[O-].Cn1cc[n+](C)c1,viscosity,"298.15 K, 100 kPa",93.4 ± 2.4 mPa·s
same,viscosity,"298.15 K, 101 kPa",78 ± 4.7 mPa·s
same,viscosity,"303.15 K, 101 kPa",61.9 ± 3.7 mPa·s
same,viscosity,"308.15 K, 101 kPa",49.9 ± 3 mPa·s
same,viscosity,"313.15 K, 101 kPa",40.9 ± 2.5 mPa·s
CCCCCCn1cc[n+](C)c1.[Cl][Fe-]([Cl])([Cl])[Cl],viscosity,"293.15 K, 101 kPa",73.92 ± 3.2 mPa·s
same,viscosity,"298.15 K, 101 kPa",58.96 ± 2.5 mPa·s
same,viscosity,"303.15 K, 101 kPa",47.89 ± 2 mPa·s
same,viscosity,"308.15 K, 101 kPa",39.56 ± 1.7 mPa·s
same,viscosity,"313.15 K, 101 kPa",33.07 ± 1.4 mPa·s
same,viscosity,"318.15 K, 101 kPa",28.06 ± 1.2 mPa·s
same,viscosity,"323.15 K, 101 kPa",24.02 ± 1 mPa·s
CCn1cc[n+](C)c1C.O=S(=O)([N-]S(=O)(=O)C(F)(F)F)C(F)(F)F,viscosity,"293.15 K, 101.3 kPa",88.09 ± 1.9 mPa·s
same,viscosity,"298.15 K, 101.3 kPa",69.84 ± 1.5 mPa·s
same,viscosity,"303.15 K, 101.3 kPa",56.37 ± 1.2 mPa·s
same,viscosity,"308.15 K, 101.3 kPa",46.1 ± 0.96 mPa·s
same,viscosity,"313.15 K, 101.3 kPa",38.26 ± 0.8 mPa·s
same,viscosity,"318.15 K, 101.3 kPa",32.15 ± 0.67 mPa·s
same,viscosity,"323.15 K, 101.3 kPa",27.31 ± 0.57 mPa·s
COCCn1cc[n+](C)c1.C[C@@H](O)[C@H](N)C(=O)[O-],viscosity,"298.15 K, 100 kPa",900.5 ± 88 mPa·s
same,viscosity,"303.15 K, 100 kPa",625.4 ± 54 mPa·s
same,viscosity,"308.15 K, 100 kPa",362.1 ± 24 mPa·s
same,viscosity,"313.15 K, 100 kPa",260 ± 15 mPa·s
same,viscosity,"318.15 K, 100 kPa",184.4 ± 8.3 mPa·s
same,viscosity,"323.15 K, 100 kPa",136.8 ± 4.8 mPa·s
CC(O)CCO (stereo unspecified),viscosity,"298.15 K, 101 kPa",96.7 ± 2.2 mPa·s and 96.8 ± 1.2 mPa·s
same,viscosity,"303.15 K, 101 kPa",69.7 ± 1.5 mPa·s and 70.93 ± 0.56 mPa·s
same,viscosity,"308.15 K, 101 kPa",51.8 ± 1.1 mPa·s and 53.72 ± 0.28 mPa·s
same,viscosity,"313.15 K, 101 kPa",40 ± 0.8 mPa·s and 40.13 ± 0.26 mPa·s
same,viscosity,"318.15 K, 101 kPa",29.9 ± 0.6 mPa·s and 31.22 ± 0.2 mPa·s
CCn1cc[n+](CCOC)c1.O=S(=O)([O-])C(F)(F)F,viscosity,"293.15 K, 101.33 kPa",92.53 ± 2.9 mPa·s
same,viscosity,"298.15 K, 101.33 kPa",72.51 ± 2 mPa·s
same,viscosity,"303.15 K, 101.33 kPa",57.87 ± 1.5 mPa·s
same,viscosity,"308.15 K, 101.33 kPa",47.34 ± 1.2 mPa·s
same,viscosity,"313.15 K, 101.33 kPa",39.02 ± 1 mPa·s
same,viscosity,"318.15 K, 101.33 kPa",32.59 ± 0.85 mPa·s

# Reference: the CheMixHub viscosity set
